Assay results as given in patent publication US10072017B2, “Compounds and methods for the treatment of cystic fibrosis” (Flatley Discovery Lab, LLC, priority 2015, dated 2018).

Target: T1, CFTR (Homo sapiens, UniProt P13569, DEL508-508)
T1 construct: Primary CF airway epithelial cells were obtained from the UNC Cystic Fibrosis Tissue Procurement and Cell Culture Core; host or cells: primary CF airway epithelial cells
Assay: Equivalent current assay in Primary CF airway epithelial cells (NAUC)
Format: cell-based
Conditions: 24 h, normalized to VX809 (3 μM) positive control; for Nauc @ 3 μM: 3 μM test compound; for Nauc @ 10 μM: 10 μM test compound
Method in brief: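 NAUC is the area under the curve from forskolin (10 μM) plus VX770 (1 μM) addition to CFTR-172 (20 μM) block, after benzamil (5 μM). It is corrected for vehicle and scaled to 3 μM VX809 as 1.0 and DMSO as 0.0. Cells were exposed for 24 h to compounds with VX809; medians of ≥4 replicates were fitted sigmoidally.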

T1 sequence (P13569 with tags, fused parts or gaps DEL508-508): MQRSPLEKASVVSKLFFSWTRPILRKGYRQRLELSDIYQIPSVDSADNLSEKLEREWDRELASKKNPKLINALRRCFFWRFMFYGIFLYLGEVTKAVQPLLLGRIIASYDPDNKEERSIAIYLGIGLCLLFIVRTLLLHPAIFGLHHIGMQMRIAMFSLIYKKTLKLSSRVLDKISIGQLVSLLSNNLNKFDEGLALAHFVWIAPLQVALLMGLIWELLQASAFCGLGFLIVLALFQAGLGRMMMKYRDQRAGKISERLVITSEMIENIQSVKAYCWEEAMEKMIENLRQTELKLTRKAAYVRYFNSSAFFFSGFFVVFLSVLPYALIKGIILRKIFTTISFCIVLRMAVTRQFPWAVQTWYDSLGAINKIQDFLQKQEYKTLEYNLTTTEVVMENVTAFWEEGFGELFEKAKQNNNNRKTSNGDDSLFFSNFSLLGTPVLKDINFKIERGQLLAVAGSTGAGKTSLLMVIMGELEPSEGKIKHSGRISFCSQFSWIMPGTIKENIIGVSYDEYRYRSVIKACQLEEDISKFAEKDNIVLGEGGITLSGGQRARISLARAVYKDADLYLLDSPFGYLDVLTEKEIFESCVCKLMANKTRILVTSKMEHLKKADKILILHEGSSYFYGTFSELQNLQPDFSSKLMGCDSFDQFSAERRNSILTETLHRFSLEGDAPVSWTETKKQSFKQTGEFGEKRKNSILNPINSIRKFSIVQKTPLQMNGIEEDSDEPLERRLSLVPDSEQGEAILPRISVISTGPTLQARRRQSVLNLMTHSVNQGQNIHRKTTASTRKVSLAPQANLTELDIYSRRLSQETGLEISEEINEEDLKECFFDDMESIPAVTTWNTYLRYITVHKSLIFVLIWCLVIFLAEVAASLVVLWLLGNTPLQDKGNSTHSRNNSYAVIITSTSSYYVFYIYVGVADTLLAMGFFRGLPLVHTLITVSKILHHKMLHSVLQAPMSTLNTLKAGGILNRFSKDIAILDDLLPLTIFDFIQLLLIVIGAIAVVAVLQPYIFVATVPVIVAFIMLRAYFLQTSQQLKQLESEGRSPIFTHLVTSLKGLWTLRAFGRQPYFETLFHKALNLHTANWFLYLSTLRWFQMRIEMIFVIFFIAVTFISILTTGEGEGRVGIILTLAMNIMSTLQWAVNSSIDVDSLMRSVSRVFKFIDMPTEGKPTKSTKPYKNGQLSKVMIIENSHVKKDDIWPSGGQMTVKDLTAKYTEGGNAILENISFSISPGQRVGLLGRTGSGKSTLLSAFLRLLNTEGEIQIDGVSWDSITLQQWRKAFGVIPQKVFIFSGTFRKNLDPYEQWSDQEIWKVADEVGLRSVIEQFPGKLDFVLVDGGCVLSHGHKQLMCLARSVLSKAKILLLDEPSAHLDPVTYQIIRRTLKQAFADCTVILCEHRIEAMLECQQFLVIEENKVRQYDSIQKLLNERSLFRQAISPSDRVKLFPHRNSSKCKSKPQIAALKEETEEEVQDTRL

Structure (SMILES)	Nauc @ 3 μM	Nauc @ 10 μM
O=C1C2C(Cc3ccccc3Cl)NC3(C(=O)Nc4c(Cl)cc(Cl)cc43)C2C(=O)N1c1cc(Cl)cc(Cl)c1 (centres unmarked) [Example 190]	+++ (NAUC “+++” refers to an observed NAUC >170% of positive control)	+++ (NAUC “+++” refers to an observed NAUC >170% of positive control)
O=C1C2C3CC(F)(F)CN3C3(C(=O)Nc4c(Cl)cc(Cl)cc43)C2C(=O)N1c1cc(Cl)cc(Cl)n1 (centres unmarked) [Example 193]	+++ (NAUC “+++” refers to an observed NAUC >170% of positive control)	+++ (NAUC “+++” refers to an observed NAUC >170% of positive control)
COc1c(Cl)cc(N2C(=O)C3C4CC(F)(F)CN4C4(C(=O)Nc5c(Cl)cc(Cl)cc54)C3C2=O)cc1Cl (centres unmarked) [Example 194]	+++ (NAUC “+++” refers to an observed NAUC >170% of positive control)	++ (NAUC “++” refers to an observed NAUC 170-140% of positive control)
Cc1ccc(CC2NC3(C(=O)Nc4c(Cl)cc(Cl)cc43)C3C(=O)N(c4cc(Cl)cc(Cl)c4)C(=O)C23)cc1 (centres unmarked) [Example 195]	+ (NAUC “+” refers to an observed NAUC <140% of positive control)	++ (NAUC “++” refers to an observed NAUC 170-140% of positive control)
O=C1C2C(Cc3ccc(F)cc3)NC3(C(=O)Nc4c(Cl)cc(Cl)cc43)C2C(=O)N1c1cc(Cl)cc(Cl)c1 (centres unmarked) [Example 196]	+ (NAUC “+” refers to an observed NAUC <140% of positive control)	++ (NAUC “++” refers to an observed NAUC 170-140% of positive control)
COc1ccc(CC2NC3(C(=O)Nc4c(Cl)cc(Cl)cc43)C3C(=O)N(c4cc(Cl)cc(Cl)c4)C(=O)C23)cc1 (centres unmarked) [Example 198]	+ (NAUC “+” refers to an observed NAUC <140% of positive control)	++ (NAUC “++” refers to an observed NAUC 170-140% of positive control)
Cc1ccccc1CC1NC2(C(=O)Nc3c(Cl)cc(Cl)cc32)C2C(=O)N(c3cc(Cl)cc(Cl)c3)C(=O)C12 (centres unmarked) [Example 199]	+++ (NAUC “+++” refers to an observed NAUC >170% of positive control)	++ (NAUC “++” refers to an observed NAUC 170-140% of positive control)
COc1cccc(CC2NC3(C(=O)Nc4c(Cl)cc(Cl)cc43)C3C(=O)N(c4cc(Cl)cc(Cl)c4)C(=O)C23)c1 (centres unmarked) [Example 200]	++ (NAUC “++” refers to an observed NAUC 170-140% of positive control)	+ (NAUC “+” refers to an observed NAUC <140% of positive control)
COc1ccccc1CC1NC2(C(=O)Nc3c(Cl)cc(Cl)cc32)C2C(=O)N(c3cc(Cl)cc(Cl)c3)C(=O)C12 (centres unmarked) [Example 201]	+ (NAUC “+” refers to an observed NAUC <140% of positive control)	+++ (NAUC “+++” refers to an observed NAUC >170% of positive control)
O=C1C2C(Cc3cccc(O)c3)NC3(C(=O)Nc4c(Cl)cc(Cl)cc43)C2C(=O)N1c1cc(Cl)cc(Cl)c1 (centres unmarked) [Example 202]	+ (NAUC “+” refers to an observed NAUC <140% of positive control)	++ (NAUC “++” refers to an observed NAUC 170-140% of positive control)
O=C1C2C(Cc3ccccn3)NC3(C(=O)Nc4c(Cl)cc(Cl)cc43)C2C(=O)N1c1cc(Cl)cc(Cl)c1 (centres unmarked) [Example 203]	++ (NAUC “++” refers to an observed NAUC 170-140% of positive control)	++ (NAUC “++” refers to an observed NAUC 170-140% of positive control)
C[C@]1(F)CC2C3C(=O)N(c4cc(Cl)cc(Cl)c4)C(=O)C3C3(C(=O)Nc4c(Cl)cc(Cl)cc43)N2C1 (some centres unmarked) [Example 204]	+ (NAUC “+” refers to an observed NAUC <140% of positive control)	+++ (NAUC “+++” refers to an observed NAUC >170% of positive control)
COc1cc(Cl)cc(N2C(=O)C3C4C[C@](C)(F)CN4C4(C(=O)Nc5c(Cl)cc(Cl)cc54)C3C2=O)c1 (some centres unmarked) [Example 205]	++ (NAUC “++” refers to an observed NAUC 170-140% of positive control)	+++ (NAUC “+++” refers to an observed NAUC >170% of positive control)
C[C@@]1(O)CC2C3C(=O)N(c4cc(Cl)cc(Cl)n4)C(=O)C3C3(C(=O)Nc4c(Cl)cc(Cl)cc43)N2C1 (some centres unmarked) [Example 206]	++ (NAUC “++” refers to an observed NAUC 170-140% of positive control)	+++ (NAUC “+++” refers to an observed NAUC >170% of positive control)
Nc1ccc(CC2NC3(C(=O)Nc4c(Cl)cc(Cl)cc43)C3C(=O)N(c4cc(Cl)cc(Cl)c4)C(=O)C23)cc1 (centres unmarked) [Example 207]	++ (NAUC “++” refers to an observed NAUC 170-140% of positive control)	+ (NAUC “+” refers to an observed NAUC <140% of positive control)
O=C1C2C(C3CCCCC3)NC3(C(=O)Nc4c(Cl)cc(Cl)cc43)C2C(=O)N1c1cc(Cl)cc(Cl)c1 (centres unmarked) [Example 208]	++ (NAUC “++” refers to an observed NAUC 170-140% of positive control)	+ (NAUC “+” refers to an observed NAUC <140% of positive control)

Structure (SMILES)	Nauc @ 3 μM	Nauc @ 10 μM
O=C1C2CN(c3ccccc3)C3(C(=O)Nc4c(Cl)cc(Cl)cc43)C2C(=O)N1c1cc(Cl)cc(Cl)c1 (centres unmarked) [Example 209]	+ (NAUC “+” refers to an observed NAUC <140% of positive control)	+++ (NAUC “+++” refers to an observed NAUC >170% of positive control)
O=C1C2C(C(=O)N1c1cc(Cl)cc(Cl)c1)C1(NC23CC3)C(=O)Nc2c(Cl)cc(Cl)cc21 (centres unmarked) [Example 210]	+ (NAUC “+” refers to an observed NAUC <140% of positive control)	++ (NAUC “++” refers to an observed NAUC 170-140% of positive control)
O=C1C2C(C(=O)N1c1cc(Cl)cc(Cl)c1)C1(NC23CCC3)C(=O)Nc2c(Cl)cc(Cl)cc21 (centres unmarked) [Example 211]	++ (NAUC “++” refers to an observed NAUC 170-140% of positive control)	++ (NAUC “++” refers to an observed NAUC 170-140% of positive control)
O=C1C2C(c3ccccn3)NC3(C(=O)Nc4c(Cl)cc(Cl)cc43)C2C(=O)N1c1cc(Cl)cc(Cl)c1 (centres unmarked) [Example 212]	+ (NAUC “+” refers to an observed NAUC <140% of positive control)	++ (NAUC “++” refers to an observed NAUC 170-140% of positive control)
COc1c(Cl)cc(N2C(=O)C3C4CC(C(F)(F)F)CN4C4(C(=O)Nc5c(Cl)cc(Cl)cc54)C3C2=O)cc1Cl (centres unmarked) [Example 213]	++ (NAUC “++” refers to an observed NAUC 170-140% of positive control)	+++ (NAUC “+++” refers to an observed NAUC >170% of positive control)
[2H]C([2H])([2H])C1(C([2H])([2H])[2H])CC2C3C(=O)N(c4cc(Cl)c(OC)c(Cl)c4)C(=O)C3C3(C(=O)Nc4c(Cl)cc(Cl)cc43)N2C1 (centres unmarked) [Example 214]	+++ (NAUC “+++” refers to an observed NAUC >170% of positive control)	+++ (NAUC “+++” refers to an observed NAUC >170% of positive control)
O=C1C2C3CC(C(F)(F)F)CN3C3(C(=O)Nc4c(Cl)cc(Cl)cc43)C2C(=O)N1c1cc(Cl)cc(Cl)c1 (centres unmarked) [Example 215]	+++ (NAUC “+++” refers to an observed NAUC >170% of positive control)	++ (NAUC “++” refers to an observed NAUC 170-140% of positive control)
O=C1C2C3CCCN3C3(C(=O)Nc4c(Cl)cc(Cl)cc43)C2C(=O)N1c1nccs1 (centres unmarked) [Example 216]	++ (NAUC “++” refers to an observed NAUC 170-140% of positive control)	+ (NAUC “+” refers to an observed NAUC <140% of positive control)
O=C1C2C(Cc3c(F)cccc3Cl)NC3(C(=O)Nc4c(Cl)cc(Cl)cc43)C2C(=O)N1c1cc(Cl)cc(Cl)c1 (centres unmarked) [Example 217]	++ (NAUC “++” refers to an observed NAUC 170-140% of positive control)	++ (NAUC “++” refers to an observed NAUC 170-140% of positive control)
O=C1C2C(Cc3ccccc3OC(F)(F)F)NC3(C(=O)Nc4c(Cl)cc(Cl)cc43)C2C(=O)N1c1cc(Cl)cc(Cl)c1 (centres unmarked) [Example 222]	+++ (NAUC “+++” refers to an observed NAUC >170% of positive control)	++ (NAUC “++” refers to an observed NAUC 170-140% of positive control)
C[C@]1(O)CC2C3C(=O)N(c4cc(Cl)cc(Cl)n4)C(=O)C3C3(C(=O)Nc4c(Cl)cc(Cl)cc43)N2C1 (some centres unmarked) [Example 223]	+ (NAUC “+” refers to an observed NAUC <140% of positive control)	+++ (NAUC “+++” refers to an observed NAUC >170% of positive control)
O=C1C2C3CCCN3C3(C(=O)Nc4c(Cl)cc(Cl)cc43)C2C(=O)N1c1cc(Cl)c(OC(F)F)c(Cl)c1 (centres unmarked) [Example 224]	+++ (NAUC “+++” refers to an observed NAUC >170% of positive control)	+++ (NAUC “+++” refers to an observed NAUC >170% of positive control)
CC1(C)CC2C3C(=O)N(c4cc(Cl)c(OC(F)F)c(Cl)c4)C(=O)C3C3(C(=O)Nc4c(Cl)cc(Cl)cc43)N2C1 (centres unmarked) [Example 225]	+++ (NAUC “+++” refers to an observed NAUC >170% of positive control)	+++ (NAUC “+++” refers to an observed NAUC >170% of positive control)
C[C@]1(O)CC2C3C(=O)N(c4cc(Cl)c(OC(F)F)c(Cl)c4)C(=O)C3C3(C(=O)Nc4c(Cl)cc(Cl)cc43)N2C1 (some centres unmarked) [Example 226]	++ (NAUC “++” refers to an observed NAUC 170-140% of positive control)	++ (NAUC “++” refers to an observed NAUC 170-140% of positive control)
O=C1C2C3CCCN3C3(C(=O)Nc4c(Cl)cc(Cl)cc43)C2C(=O)N1c1cccc(F)n1 (centres unmarked) [Example 227]	+ (NAUC “+” refers to an observed NAUC <140% of positive control)	++ (NAUC “++” refers to an observed NAUC 170-140% of positive control)
